# How the values were obtained:
# Assay type in all cases: cell-based
# ESKAPE pathogens = test: MIC micro broth dilution assay, statements and stacked scores over all ESKAPE pathogens; settings: for pathogens against which the compound showed activity at 4 ug/ml / pathogens against which the compound showed activity at 5 ug/ml / pathogens against which the compound showed activity at 10 ug/ml / pathogens against which the compound showed activity at 25 ug/ml: letters E,S,K,A,P,E = ESKAPE pathogens, — = none; for stacked score Total: stacked score over all ESKAPE pathogens (details in Table S4b); for Total stacked score: sum over all six ESKAPE pathogens
# Description: (§1) For this study we used a representative panel of multi-drug resistant clinical ESKAPE pathogen isolates (Supplemental Table S6).^42 43 3a, 44 45 Gram-positive organisms were grown in tryptic soy broth media (TSB), whilst Gram-negative organisms were grown in lysogeny Broth (LB), as described by us previously. ^43 MIC and MBC determination assays.
# (§2) The minimum inhibitory concentration (MIC) for the combinatorial libraries, deconvolved 2157 library, and individual compounds were determined as follows. Broth cultures of ESKAPE strains were grown overnight before being diluted 1 in 1,000 in fresh media. Sterile 96-well plates were loaded with culture and compounds (in DMF) were added at decreasing concentrations to equal a total volume of 200 μl per well. Care was taken to not add more than 2.0% DMF to any well. Plates were then incubated at 37° C., and MICs determined after 24 hours by visual inspection for a lack of turbidity in wells. All assays were performed in triplicate with identical results obtained. For both the scaffold ranking and positional scanning samples, relative broad-spectrum activity was determined via stacked scores: […]
# Klebsiella pneumoniae = test: MIC micro broth dilution assay; parameters: key to stacked score activity, 100/MIC, K: stacked score = 100/MIC; settings: K. pneumoniae
# Description: as §1
# as §2, with “Broth” for “The minimum inhibitory concentration (MIC) for the combinatorial libraries, deconvolved 2157 library, and individual compounds were determined as follows. Broth”
# Enterobacter cloacae = test: MIC micro broth dilution assay; parameters: key to stacked score activity, 100/MIC, E: stacked score = 100/MIC; settings: E. cloacae
# Description: as §1
# as §2, with “Broth” for “The minimum inhibitory concentration (MIC) for the combinatorial libraries, deconvolved 2157 library, and individual compounds were determined as follows. Broth”
# Enterococcus faecium = test: MIC micro broth dilution assay; parameters: key to stacked score activity, 100/MIC, E: stacked score = 100/MIC; settings: E. faecium
# Description: as §1
# as §2, with “Broth” for “The minimum inhibitory concentration (MIC) for the combinatorial libraries, deconvolved 2157 library, and individual compounds were determined as follows. Broth”
# Staphylococcus aureus = test: MIC micro broth dilution assay; parameters: key to stacked score activity, 100/MIC, S: stacked score = 100/MIC; settings: S. aureus
# Description: as §1
# as §2, with “Broth” for “The minimum inhibitory concentration (MIC) for the combinatorial libraries, deconvolved 2157 library, and individual compounds were determined as follows. Broth”
# Acinetobacter baumannii = test: MIC micro broth dilution assay; parameters: key to stacked score activity, 100/MIC, A: stacked score = 100/MIC; settings: A. baumannii
# Description: as §1
# as §2, with “Broth” for “The minimum inhibitory concentration (MIC) for the combinatorial libraries, deconvolved 2157 library, and individual compounds were determined as follows. Broth”
"stacked score activity, 100/MIC, K (Klebsiella pneumoniae)","stacked score activity, 100/MIC, E (Enterobacter cloacae)","stacked score activity, 100/MIC, E (Enterococcus faecium)","stacked score activity, 100/MIC, S (Staphylococcus aureus)","stacked score activity, 100/MIC, A (Acinetobacter baumannii)",Compound,pathogens against which the compound showed activity at 4 ug/ml (ESKAPE pathogens),pathogens against which the compound showed activity at 5 ug/ml (ESKAPE pathogens),pathogens against which the compound showed activity at 10 ug/ml (ESKAPE pathogens),pathogens against which the compound showed activity at 25 ug/ml (ESKAPE pathogens),stacked score Total (ESKAPE pathogens),Total stacked score (ESKAPE pathogens)
20,20,33,25,25,CCCCCCCN1C(=N)N(CCCC[C@H]2CNC(=N)N2CCc2cccc(C(F)(F)F)c2)C[C@H]1Cc1cccc2ccccc12 [Compound 4],ESA,ESKAE,ESKAE,ESKAPE,,
20,20,10,20,20,N=C1NC[C@H](CCCCN2C[C@@H](Cc3cccc4ccccc34)N(CCc3ccc(-c4ccccc4)cc3)C2=N)N1CCc1cccc(C(F)(F)F)c1 [Compound 6],,SKAE,ESKAE,ESKAPE,,
20,20,20,10,20,N=C1NC[C@H](CCCCN2C[C@H](CC3CCCCC3)N(CCCCC3CCCCC3)C2=N)N1CCc1cccc(C(F)(F)F)c1 [Compound 8],,EKAPE,ESKAPE,ESKAPE,,
20,20,25,20,20,N=C1NC[C@H](CCCCN2C[C@H](CC3CCCCC3)N(CCc3ccc(-c4ccccc4)cc3)C2=N)N1CCc1cccc(C(F)(F)F)c1 [Compound 9],,ESKAPE,ESKAPE,ESKAPE,,
20,20,25,25,25,CCCCCCCN1C(=N)N(CCCC[C@H]2CNC(=N)N2CCCCC2CCCCC2)C[C@@H]1CCCC [Compound 10],ESAP,ESKAPE,ESKAPE,ESKAPE,,
20,20,50,20,25,CCCC[C@H]1CN(CCCC[C@H]2CNC(=N)N2CCCCC2CCCCC2)C(=N)N1CCCCC1CCCCC1 [Compound 11],,ESAPE,ESKAPE,ESKAPE,,
20,20,20,20,25,CCCC[C@H]1CN(CCCC[C@H]2CNC(=N)N2CCCCC2CCCCC2)C(=N)N1CCc1ccc(-c2ccccc2)cc1 [Compound 12],,ESKAE,ESKAPE,ESKAPE,,
20,20,20,20,20,CCCCCCCN1C(=N)N(CCCC[C@H]2CNC(=N)N2CCCCC2CCCCC2)C[C@H]1Cc1cccc2ccccc12 [Compound 13],,ESKAE,ESKAE,ESKAPE,,
20,20,10,20,20,N=C1NC[C@H](CCCCN2C[C@@H](Cc3cccc4ccccc34)N(CCCCC3CCCCC3)C2=N)N1CCCCC1CCCCC1 [Compound 14],,SKAE,ESKAE,ESKAPE,,
10,20,10,20,4,N=C1NC[C@H](CCCCN2C[C@@H](Cc3cccc4ccccc34)N(CCc3ccc(-c4ccccc4)cc3)C2=N)N1CCCCC1CCCCC1 [Compound 15],,,ESKE,ESKAPE,,
20,20,20,20,20,N=C1NC[C@H](CCCCN2C[C@H](CC3CCCCC3)N(CCCCC3CCCCC3)C2=N)N1CCCCC1CCCCC1 [Compound 17],,ESKAPE,ESKAPE,ESKAPE,,
20,20,20,20,20,N=C1NC[C@H](CCCCN2C[C@H](CC3CCCCC3)N(CCc3ccc(-c4ccccc4)cc3)C2=N)N1CCCCC1CCCCC1 [Compound 18],,ESKAPE,ESKAPE,ESKAPE,,
20,20,50,20,25,CCCCC1CN(CCCCC2CNC(=N)N2CCC23CC4CC(CC(C4)C2)C3)C(=N)N1CCCCC1CCCCC1 (stereo not shown) [Compound 20],EAP,ESKAPE,ESKAPE,ESKAPE,160,160
20,20,33,20,25,CCCCC1CN(CCCCC2CNC(=N)N2CCC23CC4CC(CC(C4)C2)C3)C(=N)N1CCc1ccc(-c2ccccc2)cc1 (stereo not shown) [Compound 21],,ESKAPE,ESKAPE,ESKAPE,123,123
20,20,25,20,25,CCCCCCCN1C(=N)N(CCCC[C@H]2CNC(=N)N2CCC23CC4CC(CC(C4)C2)C3)C[C@H]1Cc1cccc2ccccc12 [Compound 22],EAP,ESKAE,ESKAE,ESKAPE,,
0,0,4,25,0,N=C1NC[C@H](CCCCN2C[C@@H](Cc3cccc4ccccc34)N(CCCCC3CCCCC3)C2=N)N1CCC12CC3CC(CC(C3)C1)C2 [Compound 23],,,,ESE,,
